As usually defined, the IC50 is the concentration that gives 50% inhibition.

This note sets out measurements from patent publication US10023592B2, “Bromodomain inhibitors” (Celgene Quanticel Research, Inc., priority 2013, dated 2018).

Where two headings read alike, the source gives them in different places.

Test [1] concerns the target BRD4(BD1) (Homo sapiens (Human), UniProt O60885). The test can be described thus: In vitro enzyme inhibition assay (BRD4 AlphaScreen). The test is classed as binding. The gist of the method:
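AlphaScreen proximity readout, using streptavidin donor and Ni-chelate acceptor beads at 5 μg/mL final, monitors biotin-H4 tetraacetylated peptide interaction with purified His-tagged BRD4.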
(In general: In Alpha technology, singlet oxygen from a donor bead excites a nearby acceptor bead.)

For test [2], the system named is NCI-H460, human non-small cell lung cancer cells. The test is described as follows: Cell-MTS proliferation assay, NCI-H460. The test is classed as cell-based. Conditions: Homo sapiens, 168 hr. Summed up: (§1)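 Cells were seeded per 96-well at densities giving ~90% confluence by day 7 (Raji 15,000, HL-60 5,000, NCI-H460 3,000) and dosed 24 hr later with an 11-point dilution, 100 μM to 2.0 nM final. Seven-day MTS colorimetric read at OD490; IC50 from background-subtracted, DMSO-normalised values.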
For orientation: Tetrazolium dyes change colour on reduction, which living cells bring about.

Test [3] deals with Raji, human Burkitts lymphoma cells. The test can be described thus: Cell-MTS proliferation assay, Raji. The test is classed as cell-based. As to conditions: Homo sapiens, 168 hr. Summed up: as §1
Test [4] has as its system HL-60, human proleukemia cells. The test is described as follows: Cell-MTS proliferation assay, HL-60. The test is classed as cell-based. Conditions: Homo sapiens, 168 hr. The gist of the method: as §1
[5] abbreviates: in vitro enzyme inhibition assay.
Setting [6] is: NCI-H460, Cell-MTS proliferation.
Setting [7] is: Cell-MTS proliferation, NCI-H460 cells.
Setting [8] is: Cell-MTS proliferation, Raji cells.
The mark [9] stands for this setting: Cell-MTS proliferation, HL-60 cells.
The mark [10] stands for this setting: NCI-H460, Cell-MTS, class symbols A/B/C.
The mark [11] stands for this setting: Raji, Cell-MTS, class symbols A/B/C.
The mark [12] stands for this setting: HL-60, Cell-MTS, class symbols A/B/C.

Turning to `CCOc1ccc(S(C)(=O)=O)cc1-c1cn(C)c(=O)c2ccccc12` [Example 177, 4-(2-ethoxy-5-methylsulfonylphenyl)-2-methylisoquinolin-1-one], the IC50 in test [1] (setting [5]) was below 500 nM; in test [2] (setting [6]) it was above 5000 nM; in test [3] (Raji, Cell-MTS proliferation) it was 500 to 5000 nM; in test [4] (HL-60, Cell-MTS proliferation) it was below 500 nM.

In the case of `Cc1cc(-c2cc(OC(C)c3ccccc3)cc(S(C)(=O)=O)c2)cn(C)c1=O` (stereo not drawn) [Example 336, 1,3-dimethyl-5-[3-methylsulfonyl-5-(1-phenylethoxy)phenyl]pyridin-2-one], the IC50 in test [1] (setting [5]) was below 500 nM; in test [2] (setting [6]), above 5000 nM; in test [3] (Raji, Cell-MTS proliferation), 500 to 5000 nM; in test [4] (HL-60, Cell-MTS proliferation), below 500 nM.

Regarding `CN(C)c1cc(-c2cc(S(C)(=O)=O)ccc2OCC2CC2)cn(C)c1=O` [Example 474, 5-[2-(cyclopropylmethoxy)-5-methylsulfonylphenyl]-3-(dimethylamino)-1-methylpyridin-2-one], the IC50 in test [1] (setting [5]) was below 500 nM; in test [2] (setting [7]), above 5000 nM; in test [3] (setting [8]), below 500 nM; in test [4] (setting [9]), below 500 nM.

Regarding `CCS(=O)(=O)c1ccc(OCC2CC2)c(-c2cn(C)c(=O)c3ccoc23)c1` [Example 378, 7-[2-(cyclopropylmethoxy)-5-ethylsulfonylphenyl]-5-methylfuro[3,2-c] pyridin-4-one], the half-inhibitory concentration (IC50) is below 500 nM in test [1] (setting [5]), 500 to 5000 nM in test [2] (setting [7]), below 500 nM in test [3] (setting [8]) and below 500 nM in test [4] (setting [9]).

For `CCS(=O)(=O)Nc1ncc(Oc2ccc(F)cc2F)c(-c2cc(C)c(=O)n(C)c2)n1` [Example 169, N-[5-(2,4-difluorophenoxy)-4-(1,5-dimethyl-6-oxopyridin-3-yl)pyrimidin-2-yl]ethanesulfonamide], the 50% inhibitory concentration (IC50) in test [1] (setting [5]) is below 500 nM; in test [2] (setting [6]) it was above 5000 nM; in test [3] (Raji, Cell-MTS proliferation) it was below 500 nM; in test [4] (HL-60, Cell-MTS proliferation), below 500 nM.

Take `Cc1cc(-c2cc(NS(C)(=O)=O)ccc2O[C@H]2CC[C@H](O)CC2)cn(C)c1=O` [Example 433, N-[3-(1,5-dimethyl-6-oxopyridin-3-yl)-4-(trans-4-hydroxycyclohexyl)oxyphenyl]methanesulfonamide]: the IC50 in test [1] (setting [5]) is below 500 nM; in test [2] (setting [7]) it was above 5000 nM; in test [3] (setting [8]), below 500 nM; in test [4] (setting [9]), below 500 nM.

For `Cc1cc(-c2nc(S(C)(=O)=O)ncc2Oc2ccc(F)cc2F)cn(C)c1=O` [Example 149, 5-[5-(2,4-difluorophenoxy)-2-methylsulfonylpyrimidin-4-yl]-1,3-dimethylpyridin-2-one], the IC50 in test [1] (setting [5]) was 500 to 5000 nM; in test [2] (setting [6]), above 5000 nM; in test [3] (Raji, Cell-MTS proliferation) it was above 5000 nM; in test [4] (HL-60, Cell-MTS proliferation), above 5000 nM.

Consider `CCS(=O)(=O)Nc1ccc(Oc2ccc(F)cc2F)c(-c2cn(C)c(=O)c3ncoc23)c1` [Example 240, N-[4-(2,4-difluorophenoxy)-3-(5-methyl-4-oxo-[1,3]oxazolo[4,5-c]pyridin-7-yl)phenyl]ethanesulfonamide], for which the concentration for half-maximal inhibition (IC50) in test [1] (setting [5]) is below 500 nM; in test [2] (setting [6]), above 5000 nM; in test [3] (Raji, Cell-MTS proliferation), below 500 nM; in test [4] (HL-60, Cell-MTS proliferation) it was below 500 nM.

Take `CCS(=O)(=O)c1ccc(NC2CCCC2)c(-c2cc(C)c(=O)n(C)c2)c1` [Example 416, 5-[2-(cyclopentylamino)-5-ethylsulfonylphenyl]-1,3-dimethylpyridin-2-one]: the IC50 in test [1] (setting [5]) is below 500 nM; in test [2] (setting [7]), above 5000 nM; in test [3] (setting [8]) it was below 500 nM; in test [4] (setting [9]), below 500 nM.

For the compound `CCS(=O)(=O)Nc1ccnc(-c2cn(C)c(=O)c3ccc(-c4cnn(C)c4)cc23)c1` [Example 213, N-[2-[2-methyl-6-(1-methylpyrazol-4-yl)-1-oxoisoquinolin-4-yl]pyridin-4-yl]ethanesulfonamide], the concentration for half-maximal inhibition (IC50) in test [1] (setting [5]) was below 500 nM; in test [2] (setting [6]), above 5000 nM; in test [3] (Raji, Cell-MTS proliferation) it was 500 to 5000 nM; in test [4] (HL-60, Cell-MTS proliferation), 500 to 5000 nM.

On to `COCCn1cc(-c2cc(S(C)(=O)=O)ccc2OCC2CC2)cc(C)c1=O` [Example 244, 5-[2-(cyclopropylmethoxy)-5-methylsulfonylphenyl]-1-(2-methoxyethyl)-3-methylpyridin-2-one], for which the IC50 in test [1] (setting [5]) was 500 to 5000 nM; in test [2] (setting [6]), above 5000 nM; in test [3] (Raji, Cell-MTS proliferation) it was above 5000 nM; in test [4] (HL-60, Cell-MTS proliferation), 500 to 5000 nM.

As to `Cc1cc(-c2cc(S(C)(=O)=O)ccc2OC2CCCC2)cn(C)c1=O` [Example 419, 5-(2-cyclopentyloxy-5-methylsulfonylphenyl)-1,3-dimethylpyridin-2-one], the IC50 in test [1] (setting [5]) was below 500 nM; in test [2] (setting [7]), above 5000 nM; in test [3] (setting [8]) it was 500 to 5000 nM; in test [4] (setting [9]) it was below 500 nM.

As to `CCS(=O)(=O)Nc1ncc(OCC2CC2)c(-c2cn(C)c(=O)c3ccc(F)cc23)n1` [Example 157, N-[5-(cyclopropylmethoxy)-4-(6-fluoro-2-methyl-1-oxoisoquinolin-4-yl)pyrimidin-2-yl]ethanesulfonamide], the half-inhibitory concentration (IC50) in test [1] (setting [5]) was below 500 nM; in test [2] (setting [6]), above 5000 nM; in test [3] (Raji, Cell-MTS proliferation) it was below 500 nM; in test [4] (HL-60, Cell-MTS proliferation), below 500 nM.

As to `Cn1cc(-c2cc(NS(C)(=O)=O)ccc2Oc2ccc(F)cc2F)ccc1=O` [Example 100, N-[4-(2,4-difluorophenoxy)-3-(1-methyl-6-oxopyridin-3-yl)phenyl]methanesulfonamide], the IC50 in test [1] was below 500 nM; in test [2] (setting [10]) it was above 5000 nM; in test [3] (setting [11]) it was below 500 nM; in test [4] (setting [12]) it was below 500 nM.

On to `CCS(=O)(=O)Nc1ccc(Oc2ccc(F)cc2F)c(-c2cn(C)c(=O)c3ccccc23)c1` [Example 93, N-[4-(2,4-difluorophenoxy)-3-(2-methyl-1-oxoisoquinolin-4-yl)phenyl]ethanesulfonamide], for which the half-inhibitory concentration (IC50) in test [1] (class symbols A/B/C) is below 500 nM; in test [2] (setting [10]), above 5000 nM; in test [3] (setting [11]) it was below 500 nM; in test [4] (setting [12]), below 500 nM.

For the compound `Cn1cc(-c2cn(CS(C)(=O)=O)c(=O)cc2OCC2CC2)ccc1=O` [Example 381, 4-(cyclopropylmethoxy)-5-(1-methyl-6-oxopyridin-3-yl)-1-(methylsulfonylmethyl)pyridin-2-one], the IC50 in test [1] (setting [5]) is below 500 nM; in test [2] (setting [7]), above 5000 nM; in test [3] (setting [8]), above 5000 nM; in test [4] (setting [9]), 500 to 5000 nM.

Turning to `Cn1cc(-c2cn(CS(C)(=O)=O)c(=O)cc2Oc2ccc(F)cc2F)c2ccccc2c1=O` [Example 387, 4-[4-(2,4-difluorophenoxy)-1-(methylsulfonylmethyl)-6-oxopyridin-3-yl]-2-methylisoquinolin-1-one], the IC50 in test [1] (setting [5]) is below 500 nM; in test [2] (setting [7]), above 5000 nM; in test [3] (setting [8]), below 500 nM; in test [4] (setting [9]), below 500 nM.

`CCS(=O)(=O)Nc1ccc(Oc2ccc(F)cc2F)c(-c2cc(N(C)C)c(=O)n(C)c2)c1` [Example 464, N-[4-(2,4-difluorophenoxy)-3-[5-(dimethylamino)-1-methyl-6-oxopyridin-3-yl]phenyl]ethanesulfonamide]: the 50% inhibitory concentration (IC50) is below 500 nM in test [1] (setting [5]), above 5000 nM in test [2] (setting [7]), below 500 nM in test [3] (setting [8]) and below 500 nM in test [4] (setting [9]).

Consider `Cc1cc(-c2cc(S(C)(=O)=O)ccc2OCC2CC2)cn(C)c1=O` [Example 476, 5-[2-(cyclopropylmethoxy)-5-methylsulfonylphenyl]-1,3-dimethylpyridin-2-one], for which the half-inhibitory concentration (IC50) in test [1] (setting [5]) was below 500 nM; in test [2] (setting [7]), above 5000 nM; in test [3] (setting [8]), 500 to 5000 nM; in test [4] (setting [9]) it was below 500 nM.

For `CCS(=O)(=O)Nc1ccc(OCC2CC2)c(-c2cn(C)c(=O)c3sc(C(N)=O)cc23)c1` [Example 266, 4-[2-(cyclopropylmethoxy)-5-(ethylsulfonylamino)phenyl]-6-methyl-7-oxothieno[2,3-c]pyridine-2-carboxamide], the IC50 in test [1] (setting [5]) is below 500 nM; in test [2] (setting [6]), above 5000 nM; in test [3] (Raji, Cell-MTS proliferation), below 500 nM; in test [4] (HL-60, Cell-MTS proliferation) it was below 500 nM.

For `COc1cc(-c2cc(CS(C)(=O)=O)ccc2Oc2ccc(F)cc2F)cn(C)c1=O` [Example 400, 5-[2-(2,4-difluorophenoxy)-5-(methylsulfonylmethyl)phenyl]-3-methoxy-1-methylpyridin-2-one], the IC50 in test [1] (setting [5]) was below 500 nM; in test [2] (setting [7]) it was above 5000 nM; in test [3] (setting [8]), below 500 nM; in test [4] (setting [9]), below 500 nM.

Take `CCS(=O)(=O)c1ccc(Oc2ccc(F)cc2F)c(-c2cc(F)c(=O)n(C)c2)c1` [Example 121, 5-[2-(2,4-difluorophenoxy)-5-ethylsulfonylphenyl]-3-fluoro-1-methylpyridin-2-one]: the half-inhibitory concentration (IC50) in test [1] (class symbols A/B/C) was below 500 nM; in test [2] (setting [10]) it was above 5000 nM; in test [3] (setting [11]), 500 to 5000 nM; in test [4] (setting [12]), below 500 nM.

As to `Cn1cc(-c2cc(S(C)(=O)=O)ccc2OC2CCOC2)c2ccccc2c1=O` (stereo not drawn) [Example 175, 2-methyl-4-[5-methylsulfonyl-2-(oxolan-3-yloxy)phenyl]isoquinolin-1-one], the IC50 in test [1] (setting [5]) was below 500 nM; in test [2] (setting [6]) it was above 5000 nM; in test [3] (Raji, Cell-MTS proliferation), below 500 nM; in test [4] (HL-60, Cell-MTS proliferation) it was below 500 nM.

In the case of `Cc1cc(-c2cc(S(C)(=O)=O)ccc2O[C@H]2CC[C@H](O)CC2)cn(C)c1=O` [Example 401, 5-[2-(4-hydroxycyclohexyl)oxy-5-methylsulfonylphenyl]-1,3-dimethylpyridin-2-one], the 50% inhibitory concentration (IC50) is below 500 nM in test [1] (setting [5]), above 5000 nM in test [2] (setting [7]), 500 to 5000 nM in test [3] (setting [8]) and below 500 nM in test [4] (setting [9]).
